Data as given in ChEMBL document CHEMBL1201862, “PubChem BioAssay data set” (2004).
Where “and” joins values, the source holds several entries; their conditions need not be identical. Equal entries are not always repeated.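 Tested at 5 concentrations; 48 h exposure; 96-well plates; endpoints linearly interpolated, else capped at highest concentration. Here, GI50 denotes the concentration required for 50% inhibition of growth.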 Calls of active or inactive are those of the source. Cut-off read from the data, not from the text of the source: active = GI50 up to about 1.1 µM and inactive = higher.

Assays:
Assay in all cases: NCI anticancer screen, dose series, 48 h
[1] = test system: SK-MEL-28
[2] = test system: PC-3
[3] = test system: SNB-75
[4] = test system: HCC 2998
[5] = test system: Malme-3M
[6] = test system: OVCAR-8
[7] = test system: HCT-116
[8] = test system: HOP-92
[9] = test system: TK-10
[10] = test system: RPMI-8226
[11] = test system: UACC-62
[12] = test system: NCI-H522
[13] = test system: MDA-N
[14] = test system: CAKI-1
[15] = test system: A549
[16] = test system: SK-MEL-2
[17] = test system: SK-MEL-5
[18] = test system: SF-268
[19] = test system: Hs-578T
[20] = test system: A498

Measured: GI50

O=C1c2ccccc2-c2nc(-c3ccncc3)cc3c2c1nc1ccccc13
inactive: [1] 32.3 µM | [2] 13.3 µM | [3] 32.5 µM | [4] 18.7 µM | [5] 4.27 µM | [6] 25.2 µM | [7] 6.4 µM | [8] > 100 µM | [9] 33.2 µM | [10] 11.4 µM | [11] 13.4 µM | [12] 10.7 µM | [13] 17.4 µM | [14] > 100 µM | [15] 13.6 µM | [16] 11.3 µM

Cn1cc(S(=O)(=O)NC(=O)Nc2ccc(Cl)cc2)c(=O)c2ccc(Cl)cc21
inactive: [17] > 100 µM | [1] > 100 µM | [2] 76.6 µM | [3] > 100 µM | [4] 85.3 µM | [5] > 100 µM | [6] > 100 µM | [7] 84.1 µM | [9] > 100 µM | [18] > 100 µM | [11] 20.9 µM | [12] 20.9 µM | [19] 72.1 µM | [13] > 100 µM | [14] > 100 µM | [15] > 100 µM | [16] > 100 µM

O=C1CC(C(OCc2ccccc2)C(OCc2ccccc2)C(COCc2ccccc2)OCc2ccccc2)CC(=O)N1 (stereo unspecified)
inactive: [17] > 75 µM | [1] > 75 µM | [2] > 75 µM | [4] > 75 µM | [5] > 100 µM | [6] > 75 µM | [7] > 75 µM | [9] > 75 µM | [18] > 75 µM | [10] > 75 µM | [20] > 100 µM | [19] > 75 µM and 88.7 µM | [13] > 75 µM | [15] 72.4 µM

CC(C)(C)n1nc(C2CC2)cc1NC(=O)Nc1ccc(Cl)cc1
inactive: [17] > 100 µM | [1] > 100 µM | [2] > 100 µM | [3] 78 µM | [4] > 100 µM | [5] > 100 µM | [6] > 100 µM | [7] > 100 µM | [8] > 100 µM | [9] > 100 µM | [18] > 100 µM | [10] > 100 µM | [11] > 100 µM | [12] > 100 µM | [20] > 100 µM | [19] > 100 µM | [14] > 100 µM | [15] > 100 µM | [16] > 100 µM

N=c1oc2ccccc2cc1-c1nc2ccccc2c(=O)[nH]1
inactive: [17] > 100 µM | [1] > 100 µM | [2] > 100 µM | [3] 2.72 µM | [4] 90.2 µM | [5] 60.8 µM | [6] 60.3 µM | [7] 42.9 µM | [8] 20 µM | [9] 35.3 µM | [18] 29 µM | [10] > 100 µM | [11] 27.8 µM | [12] 14.7 µM | [19] 23.2 µM | [13] > 100 µM | [14] > 100 µM | [15] 78.3 µM | [16] 58.9 µM

O=C1NC(N2CCCCC2)=N/C1=C\c1ccc(Cl)cc1
inactive: [17] 35.5 µM | [1] 92 µM | [2] 37.1 µM | [4] 19.8 µM | [5] 16.5 µM | [6] 20.2 µM | [7] 26.5 µM | [8] 13 µM | [9] 30.2 µM | [18] 38.2 µM | [10] 66.2 µM | [11] 26.5 µM | [12] 21 µM | [19] 28.5 µM | [13] 71 µM | [14] > 100 µM | [15] 38.5 µM | [16] > 100 µM

C=C1c2nc3ccccc3n2C=C(c2ccc(Cl)cc2)N1c1ccccc1
inactive: [17] 16.1 µM | [1] 11.7 µM | [2] 26.4 µM | [3] 3.5 µM | [4] 13.3 µM | [5] 12.1 µM | [6] 9.51 µM | [7] 14 µM | [8] 20.7 µM | [9] 12.4 µM | [10] 28 µM | [11] 18.3 µM | [12] 4 µM | [20] 37.2 µM | [13] 33.1 µM | [14] 15.7 µM | [15] 14.1 µM | [16] 22.5 µM

Cc1ccc(/C=C2\NC(=S)NC2=O)cc1
inactive: [17] > 100 µM | [1] > 100 µM | [2] > 100 µM | [3] > 100 µM | [4] > 100 µM | [5] > 100 µM | [6] > 100 µM | [7] > 100 µM | [9] > 100 µM | [18] > 100 µM | [10] > 100 µM | [11] > 100 µM | [12] > 100 µM | [19] > 100 µM | [13] > 100 µM | [14] > 100 µM | [15] > 100 µM | [16] > 100 µM

O=c1n(Cc2ccccc2)c(=O)n2c(=O)n(Cc3ccccc3)c(=O)n12
inactive: [17] > 100 µM | [1] > 100 µM | [3] > 100 µM | [4] > 100 µM | [5] > 100 µM | [6] > 100 µM | [7] > 100 µM | [8] > 100 µM | [9] > 100 µM | [18] > 100 µM | [10] > 100 µM | [11] > 100 µM | [12] > 100 µM | [20] > 100 µM | [19] > 100 µM | [13] > 100 µM | [14] > 100 µM

C=CCNC(=O)NC(=O)CSC1=NC(=O)C2(NN1)c1ccccc1-c1ccccc12
inactive: [17] > 10 µM | [1] > 10 µM | [2] > 10 µM | [3] > 10 µM | [4] > 10 µM | [5] > 10 µM | [6] > 10 µM | [7] > 10 µM | [8] > 10 µM | [9] > 10 µM | [18] > 10 µM | [10] > 10 µM | [11] > 10 µM | [12] > 10 µM | [19] 9.51 µM | [13] > 10 µM | [14] > 10 µM | [15] > 10 µM

O=C(Nc1ccn(C2CC(O)C(CO)O2)c(=O)n1)c1ccccc1 (stereo unspecified)
inactive: [17] > 100 µM | [1] > 100 µM | [2] > 100 µM | [3] > 100 µM | [6] > 100 µM | [7] > 100 µM | [9] > 100 µM | [18] > 100 µM | [10] > 100 µM | [11] > 100 µM | [12] > 100 µM | [20] > 100 µM | [19] > 100 µM | [13] > 100 µM | [14] > 100 µM | [15] > 100 µM | [16] > 100 µM
